Measurements from ChEMBL document CHEMBL4339244, “Clavariopsins C-I, Antifungal Cyclic Depsipeptides from the Aquatic Hyphomycete Clavariopsis aquatica” (J Nat Prod, 2019).
Calls of active or inactive are those of the source. The rule behind the calls is not given here.

Key:
[1] = tested on: Botrytis cinerea; assay: Antifungal activity against Botrytis cinerea assessed as inhibition of microbial growth by measuring minimum inhibitory dose per disc inducing visually distinct inhibition zone between the paper disk and colony front by paper disk based assay; assay type: functional
[2] = tested on: Pyricularia oryzae; assay: Antifungal activity against Magnaporthe oryzae assessed as inhibition of microbial growth by measuring minimum inhibitory dose per disc inducing visually distinct inhibition zone between the paper disk and colony front by paper disk based assay; assay type: functional, organism-based
[3] = tested on: Colletotrichum orbiculare; assay: Antifungal activity against Colletotrichum orbiculare assessed as inhibition of microbial growth by measuring minimum inhibitory dose per disc inducing visually distinct inhibition zone between the paper disk and colony front by paper disk based assay; assay type: functional, organism-based
[4] = tested on: Fusarium oxysporum; assay: Antifungal activity against Fusarium oxysporum assessed as inhibition of microbial growth by measuring minimum inhibitory dose per disc inducing visually distinct inhibition zone between the paper disk and colony front by paper disk based assay; assay type: functional, organism-based
[5] = tested on: Alternaria alternata; assay: Antifungal activity against Alternaria alternata assessed as inhibition of microbial growth by measuring minimum inhibitory dose per disc inducing visually distinct inhibition zone between the paper disk and colony front by paper disk based assay; assay type: functional
[6] = tested on: Aspergillus niger; assay: Antifungal activity against Aspergillus niger assessed as inhibition of microbial growth by measuring minimum inhibitory dose per disc inducing visually distinct inhibition zone between the paper disk and colony front by paper disk based assay; assay type: functional, organism-based
[7] = tested on: Aspergillus niger; assay: Induction of hyphal malformation in Aspergillus niger assessed as minimum effective dose per disc results in obvious morphological changes incubated for 16 hrs by phase contrast microscopy; assay type: functional
[8] = tested on: HeLa S3; assay: Cytotoxicity in human HeLaS3 cells assessed as reduction in cell viability incubated for 48 hrs by MTT assay; assay type: functional, cell-based; details: HeLa S3, 48 h

| Structure (SMILES) | MID [1] | inhibition [2] | inhibition [3] | inhibition [4] | MID [5] | inhibition [6] | MED [7] | IC50 [8] |
| --- | --- | --- | --- | --- | --- | --- | --- | --- |
| CC[C@H](C)[C@H]1C(=O)NCC(=O)N(C)[C@@H](C(C)C)C(=O)N[C@@H](Cc2ccc(OC)cc2)C(=O)O[C@H](C(C)C)C(=O)N2CCCC[C@H]2C(=O)N(C)[C@@H](C(C)C)C(=O)N[C@@H](C(C)C)C(=O)N(C)[C@@H](CC(=O)O)C(=O)N(C)[C@@H](C(C)C)C(=O)N1C | 0.01 to 0.3 µg | Active | Active | Active | 0.01 µg | Active | 0.3 µg | > 10 µM |
| CC[C@H](C)[C@H]1C(=O)NCC(=O)N(C)[C@@H](C(C)C)C(=O)N[C@@H](Cc2ccc(OC)cc2)C(=O)O[C@H](C(C)C)C(=O)N2CCCC[C@H]2C(=O)N(C)[C@@H](C(C)C)C(=O)N[C@@H](C(C)C)C(=O)N(C)[C@@H](CC(=O)O)C(=O)N(C)[C@@H]([C@@H](C)CC)C(=O)N1C | 0.01 to 0.3 µg | Active | Active | Active | 0.01 µg | Active | 0.3 µg | > 10 µM |
| CC[C@H](C)[C@@H]1NC(=O)[C@H]([C@@H](C)CC)N(C)C(=O)[C@H](CC(=O)O)N(C)C(=O)[C@H](C(C)C)NC(=O)[C@H](C(C)C)N(C)C(=O)[C@@H]2CCCCN2C(=O)[C@@H](C(C)C)OC(=O)[C@H](Cc2ccc(OC)cc2)NC(=O)[C@H](C(C)C)N(C)C(=O)CNC1=O | 0.01 to 0.3 µg | Active | Active | Active | 0.01 µg | Active | 0.3 µg | > 10 µM |
| CC[C@H](C)[C@H]1C(=O)N(C)[C@@H](C(C)C)C(=O)NCC(=O)N(C)[C@@H](C(C)C)C(=O)N[C@@H](Cc2ccc(OC)cc2)C(=O)O[C@H](C(C)C)C(=O)N2CCCC[C@H]2C(=O)N(C)[C@@H](C(C)C)C(=O)N[C@@H](C(C)C)C(=O)N(C)[C@@H](CC(=O)O)C(=O)N1C | 0.01 to 0.3 µg | Active | Active | Active | 0.03 to 0.3 µg | Active | 0.3 µg | > 10 µM |
| CC[C@H](C)[C@H]1C(=O)NCC(=O)N(C)[C@@H](C(C)C)C(=O)N[C@@H](Cc2ccc(OC)cc2)C(=O)O[C@H](C(C)C)C(=O)N2CCC[C@H]2C(=O)N(C)[C@@H](C(C)C)C(=O)N[C@@H](C(C)C)C(=O)N(C)[C@@H](CC(=O)O)C(=O)N(C)[C@@H]([C@@H](C)CC)C(=O)N1C | 0.01 to 0.3 µg | Active | Active | Active | 0.03 to 0.3 µg | Active | 0.3 µg | > 10 µM |
| CC[C@H](C)[C@H]1C(=O)NCC(=O)N(C)[C@@H](C(C)C)C(=O)N[C@@H](Cc2ccc(OC)cc2)C(=O)O[C@H](C(C)C)C(=O)N2CCCC[C@H]2C(=O)N(C)[C@@H](C(C)C)C(=O)N[C@@H](CC(C)C)C(=O)N(C)[C@@H](CC(=O)O)C(=O)N(C)[C@@H]([C@@H](C)CC)C(=O)N1C | 0.01 to 0.3 µg | Active | Active | Active | 0.03 to 0.3 µg | Active | 3 µg | > 10 µM |
| CC[C@H](C)[C@H]1C(=O)N(C)[C@@H](CC(C)C)C(=O)NCC(=O)N(C)[C@@H](C(C)C)C(=O)N[C@@H](Cc2ccc(OC)cc2)C(=O)O[C@H](C(C)C)C(=O)N2CCCC[C@H]2C(=O)N(C)[C@@H](C(C)C)C(=O)N[C@@H](C(C)C)C(=O)N(C)[C@@H](CC(=O)O)C(=O)N1C | 0.01 to 0.3 µg | Active | Active | Active | 0.03 to 0.3 µg | Active | 0.3 µg | > 10 µM |
| CC[C@H](C)[C@H]1C(=O)NCC(=O)N(C)[C@@H](C(C)C)C(=O)N[C@@H](Cc2ccc(OC)cc2)C(=O)O[C@H](C(C)C)C(=O)N2CCCC[C@H]2C(=O)N(C)[C@@H](C(C)C)C(=O)N[C@@H](C(C)C)C(=O)N(C)[C@@H](CC(=O)O)C(=O)N(C)[C@@H](CC(C)C)C(=O)N1C | 0.01 to 0.3 µg | Active | Active | Active | 0.03 to 0.3 µg | Active | 0.3 µg | > 10 µM |
| CC[C@H](C)[C@H]1C(=O)NCC(=O)N(C)[C@@H](C(C)C)C(=O)N[C@@H](Cc2ccc(OC)cc2)C(=O)O[C@H](C(C)C)C(=O)N2CCCC[C@H]2C(=O)N[C@@H](C(C)C)C(=O)N[C@@H](C(C)C)C(=O)N(C)[C@@H](CC(=O)O)C(=O)N(C)[C@@H]([C@@H](C)CC)C(=O)N1C | 0.01 to 0.3 µg | Active | Active | Active | 0.03 to 0.3 µg | Active | 3 µg | > 10 µM |
